{"source": "patent US20250345318A1", "about": "“COMPOUND AND USE THEREOF IN PREVENTING OR TREATING RADIATION DAMAGE” (SIMCERE PHARMACEUTICAL CO., LTD., priority 2022, published 2025)", "key": {"[1]": {"tested_on": "C57BL/6 male mice", "experiment": "Small intestine epithelial injury after abdominal X-ray irradiation at 3 or 6 Gy (Example 8)", "type": "in vivo", "settings": "for small intestine villus length: 4 days after", "experimental": "CS7BL/6 male mice (24.8±1.6 g in body weight) aged 10 weeks were divided into 5 groups of 6 mice each. JAC4 (100 mg/kg) or an equal volume of vehicle (polyethylene glycol:ethanol:physiological saline=47.5:7.5:50, v/v/v) was orally administered to the mice once daily for 7 consecutive days. After that, the mice were subjected to abdominal X-ray irradiation at different doses (3 or 6 Gy) and JAC4 or vehicle treatment was continued. After 4 days, the small intestine tissues were collected for HE staining and inspection, the small intestine villus length and the ileum crypt height in all groups were measured and statistically analyzed, and the small intestine was histopathologically scored. The specific procedures are as follows: 3 mice were randomly selected from each group for statistical analysis of their small intestine tissue HE staining images, and for each mouse, 6 fields of view were randomly selected for inspection (*** p<0.001)."}, "[2]": {"tested_on": "IEC-6 cells", "experiment": "Mitochondrial membrane potential by JC-1 staining in irradiated IEC-6 cells (Example 13)", "type": "cell-based", "settings": "JAC4 24 h pretreatment + 12 Gy, 24 h after", "experimental": "IEC-6 cells were pretreated for 24 h with JAC4 ([…]) or DMSO and subjected to radiation (12 Gy) treatment. After 24 h the ROS produced in the IEC-6 cells was determined with a DCFH probe, the apoptosis of IEC-6 cells was determined by Hoechst staining, the mitochondrial membrane potential in IEC-6 cells was determined by JC-1 staining, and the apoptotic IEC-6 cell ratio of cells different treatments and the red/green fluorescence ratio in IEC-6 cells after different treatments were calculated (**p<0.01 and ***p<0.001)."}, "[3]": {"tested_on": "C57BL/6 male mice", "experiment": "Survival of mice receiving total body X-ray irradiation (Example 1)", "type": "in vivo", "experimental": "C57BL/6 male mice (24.8±1.6 g in body weight) aged 10 weeks were divided into two groups of 11 mice each. After acclimating to the environment, JAC4 (100 mg/kg) or an equal volume of vehicle (polyethylene glycol:ethanol:physiological saline=47.5:7.5:50, v/v/v) was orally administered to the mice once daily for 7 consecutive days. After that, the mice were subjected to total body X-ray irradiation (6.5 Gy) and JAC4 or vehicle treatment was continued. After 3 days, the administration of JAC4 or vehicle was discontinued. The status was observed daily and the body weights of the mice were recorded."}, "[4]": {"tested_on": "BEAS-2B cells", "experiment": "Apoptosis (Hoechst 33342) and mitochondrial membrane potential (JC-1), BEAS-2B (Example 22)", "type": "cell-based, human", "experimental": "Severe DSBs may cause apoptosis. SPCA-1 and BEAS-2B cells were plated and cultured for 24 h before they were treated with 10 μM JAC4 for 24 h and 4 Gy X-ray for 24 h. The cells were stained with Hoechst 33342 (see Hoechst staining for apoptosis detection in Example 13) to evaluate the effect of JAC4 in combination with radiation on apoptosis. […] The decrease in mitochondrial membrane potential (JC-1) is a marker event in the early stage of apoptosis. The mitochondrial membrane potential was measured using fluorescent probe JC-1. The red fluorescence indicates a high mitochondrial membrane potential leading to JC-1 aggregate formation, and the green fluorescence indicates the mitochondrial membrane potential depolarization. The fluorescence ratio of red to green reflects the mitochondrial membrane potential and the number of early apoptotic cells."}, "[5]": {"tested_on": "C57BL/6 male mice", "experiment": "Small intestine epithelial injury after abdominal X-ray irradiation 12 Gy (Example 10)", "type": "in vivo", "settings": "for small intestine crypt height / small intestine histopathological score: JAC4 100 mg/kg; for small intestine villus length: JAC4 100 mg/kg oral 7 days", "experimental": "C57BL/6 male mice (24.7±0.9 g in body weight) aged 10 weeks were divided into 3 groups: a vehicle control group (n=6), a vehicle+radiation group (n=12), and a JAC4+radiation group (n=12). JAC4 (100 mg/kg) or an equal volume of vehicle (polyethylene glycol:ethanol:physiological saline=47.5:7.5:50, v/v/v) was orally administered to the mice once daily for 7 consecutive days. After that, the mice in the radiation groups were subjected to abdominal X-ray irradiation (12 Gy). The mice in the vehicle control group (n=6), the vehicle+radiation group (n=6), and the JAC4+radiation group (n=6) were sacrificed at 6 h, and blood samples and small intestine tissues were collected. The remaining mice in the vehicle+radiation group (n=6) and the JAC4+radiation group (n=6) were sacrificed after day 8, and blood samples and small intestine tissues were collected. In the process, abdominal irradiation was given while sparing the femoral region to minimize damage to the hematopoietic system. After the abdominal irradiation, HE staining was performed on the small intestines of mice in all groups, and the small intestine villus lengths, histopathological scores of the small intestine tissue sections, and the crypt heights were measured in all groups (* p<0.05, *** p<0.001)."}, "[6]": {"tested_on": "NF-κB", "experiment": "NF-κB nuclear translocation by Western blot, BEAS-2B (Example 22)", "type": "cell-based, human", "settings": "JAC4 in combination with X-ray", "source_text": "The production of ROS may lead to the activation of NF-κB, promote the translocation of NF-κB to the cell nucleus, and mediate various inflammatory responses. The nuclear and cytoplasmic proteins in BEAS-2B cells in all groups were separated."}, "[7]": {"tested_on": "C57BL/6 male mice", "experiment": "Prophylactic JAC4 administration, total body X-ray irradiation, small intestine villus length (Example 6)", "type": "in vivo", "experimental": "C57BL/6 male mice (24.8±1.6 g in body weight) aged 10 weeks were divided into 4 groups. JAC4 (100 mg/kg) or an equal volume of vehicle (polyethylene glycol:ethanol:physiological saline=47.5:7.5:50, v/v/v) was orally administered to the mice once daily for 7 consecutive days. After that, the mice were subjected to total body X-ray irradiation (6 Gy) and JAC4 or vehicle treatment was discontinued. After 7 days, the small intestine tissues were collected for HE staining and inspection, and the small intestine villus length was measured in all groups and statistically analyzed. The specific procedures are as follows: 3 mice were randomly selected from each group for statistical analysis of their small intestine tissue HE staining images, and for each mouse, 6 fields of view were randomly selected for inspection (*** p<0.001)."}, "[8]": {"tested_on": "IEC-6 cells", "experiment": "Western blot of DNA repair and apoptosis proteins in irradiated IEC-6 cells (Example 14)", "type": "cell-based"}, "[9]": {"settings": "JAC4 100 mg/kg oral + abdominal X-ray 3 Gy"}, "[10]": {"settings": "JAC4 100 mg/kg oral + abdominal X-ray 6 Gy"}, "[11]": {"settings": "6 h after abdominal X-ray 12 Gy"}, "[12]": {"settings": "day 8 after abdominal X-ray 12 Gy"}, "[13]": {"settings": "JAC4 1 μM or 10 μM 24 h + 12 Gy, vs control group"}}, "data": [{"smiles": "c1ccc(CSc2nnc(C3COc4ccccc4O3)o2)nc1", "note": "(stereo not shown) [JAC4]", "values": [{"measurement": "ileum crypt height", "setting": "[1]; [9]", "value": "62.06±3.26", "unit": "μm"}, {"measurement": "small intestine histopathological score", "setting": "[1]; [9]", "value": "1.50±0.55"}, {"measurement": "small intestine villus length", "setting": "[1]; [9]", "value": "278.19±25.21", "unit": "μm"}, {"measurement": "ileum crypt height", "setting": "[1]; [10]", "value": "57.32±4.43", "unit": "μm"}, {"measurement": "small intestine histopathological score", "setting": "[1]; [10]", "value": "4.17±0.98"}, {"measurement": "small intestine villus length", "setting": "[1]; [10]", "value": "278.25±23.79", "unit": "μm"}, {"measurement": "red/green fluorescence ratio (JC-1, mitochondrial membrane potential)", "setting": "[2]", "value": "0.49±0.05"}, {"measurement": "mean survival after radiation", "setting": "[3]; JAC4 100 mg/kg oral once daily, 7 days before to 3 days after total body X-ray 6.5 Gy, observation day 30", "value": "17.9 ± 8.4", "unit": "days"}, {"measurement": "number of mice died", "setting": "[3]; JAC4 100 mg/kg oral, TBI 6.5 Gy, 11 mice per group", "value": 6, "unit": "mice"}, {"measurement": "number of mice survived", "setting": "[3]; JAC4 100 mg/kg oral, TBI 6.5 Gy, 11 mice per group, vehicle group all dead on day 12", "value": 5, "unit": "mice"}, {"measurement": "weight loss after radiation", "setting": "[3]; JAC4 100 mg/kg oral, TBI 6.5 Gy, vs vehicle", "value": "slower"}, {"measurement": "apoptosis (Hoechst 33342)", "setting": "[4]; 10 μM JAC4 24 h + 4 Gy X-ray 24 h", "value": "decreased the pro-apoptotic effect of X-ray"}, {"measurement": "mitochondrial membrane potential (JC-1)", "setting": "[4]; JAC4 in combination with X-ray", "value": "reversed the X-ray-induced decrease in mitochondrial membrane potential"}, {"measurement": "small intestine crypt height", "setting": "[5]; [11]", "value": "49.80±4.06", "unit": "μm"}, {"measurement": "small intestine histopathological score", "setting": "[5]; [11]", "value": "3.17±0.41"}, {"measurement": "small intestine villus length", "setting": "[5]; [11]", "value": "308.25±25.65", "unit": "μm"}, {"measurement": "small intestine crypt height", "setting": "[5]; [12]", "value": "53.76±3.33", "unit": "μm"}, {"measurement": "small intestine histopathological score", "setting": "[5]; [12]", "value": "2.83±0.41"}, {"measurement": "small intestine villus length", "setting": "[5]; [12]", "value": "300.38±33.27", "unit": "μm"}, {"measurement": "X-ray-induced increase of NF-κB nuclear expression", "setting": "[6]", "value": "inhibited"}, {"measurement": "small intestine villus length", "setting": "[7]; JAC4 100 mg/kg oral 7 days pretreatment, then TBI 6 Gy, tissue 7 days later", "value": "277.64±33.55", "unit": "μm"}, {"measurement": "small intestine villus length", "setting": "[7]; non-radiation, JAC4 100 mg/kg oral 7 days", "value": "306.54±14.00", "unit": "μm"}, {"measurement": "anti-apoptotic proteins (Bcl-2)", "setting": "[8]; [13]", "value": "increases"}, {"measurement": "pro-apoptotic proteins (spliced PARP1, spliced Caspase-3, spliced Caspase-9, Bax)", "setting": "[8]; [13]", "value": "decreases"}, {"measurement": "XRCC1 expression level", "setting": "[8]; JAC4 treatment after radiation (small intestine tissue and IEC-6 cells)", "value": "increased its expression level"}]}]}
